Results from PubChem BioAssay (NCI).
Where “and” joins values, the source holds several entries; their conditions need not be identical. Equal entries are not always repeated.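 1) Cells in 96-well plates. 2) Compound, 48 h, 5 concentrations. 3) Linear interpolation between surrounding doses. 4) Unreached endpoint = highest concentration. GI50 marks 50% less growth. TGI: concentration producing complete growth inhibition.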

What was measured:
Assay in all cases: NCI-60 cell line screen, 48 h
[1] = system: U251 CNS
[2] = system: COLO 205 colon
[3] = system: SK-MEL-28 melanoma
[4] = system: SNB-19 CNS
[5] = system: IGROV1 ovarian
[6] = system: SK-OV-3 ovarian
[7] = system: SK-MEL-5 melanoma
[8] = system: ACHN renal
[9] = system: PC-3 prostate
[10] = system: MALME-3M melanoma

Compound: O=S(=O)(Nc1ccc(Br)cc1)c1ccc(-c2cnc(C3CC3)o2)cc1
- GI50 [1]: 3.31 µM
- TGI [1]: 18.2 µM
- GI50 [2]: 2.53 µM
- TGI [2]: 12.1 µM
- GI50 [3]: 10 µM
- TGI [3]: 22.9 µM
- GI50 [4]: 3.98 µM
- TGI [4]: 18.3 µM
- GI50 [5]: 2.57 µM
- TGI [5]: 15.8 µM
- GI50 [6]: 2.49 µM
- TGI [6]: 14.3 µM
- GI50 [7]: 2.49 µM
- TGI [7]: 11.6 µM
- GI50 [8]: 4.9 µM
- TGI [8]: 17.5 µM
- GI50 [9]: 2.67 µM
- TGI [9]: 15.5 µM
- GI50 [10]: 1.66 µM
- TGI [10]: 17.8 µM

Compound: CCN1C(=O)N(CC)C2C1NN=c1s/c(=C\c3ccc(Cl)cc3Cl)c(=O)n12 (configuration not stated)
- GI50 [1]: 0.0365 µM
- TGI [1]: > 41.3 µM
- GI50 [2]: 0.0263 µM
- TGI [2]: 0.0748 µM
- GI50 [3]: 2.48 µM
- TGI [3]: > 100 µM
- GI50 [4]: 0.0503 µM
- TGI [4]: > 100 µM
- GI50 [5]: 0.0437 µM
- TGI [5]: > 44.4 µM
- GI50 [6]: 0.0448 µM
- TGI [6]: > 100 µM
- GI50 [7]: 0.0247 µM
- TGI [7]: 0.0763 µM
- GI50 [8]: 0.0513 µM
- TGI [8]: > 51.2 µM
- GI50 [9]: 0.0408 µM
- TGI [9]: > 53.4 µM
- GI50 [10]: 0.0777 µM
- TGI [10]: > 75 µM

Compound: C1CSCCCSCCCSCCCSCCCSCCCSCCCSCCCSC1
- TGI [1]: > 100 µM
- TGI [2]: > 100 µM
- TGI [3]: > 100 µM
- TGI [4]: > 100 µM
- TGI [5]: > 100 µM
- TGI [6]: > 100 µM
- TGI [7]: > 100 µM
- TGI [8]: > 100 µM
- TGI [9]: > 100 µM
- TGI [10]: > 100 µM

Compound: c1ccc(-c2nc(-c3ccccn3)nc(-c3ccccn3)n2)nc1
- GI50 [1]: 48.6 µM
- TGI [1]: > 100 µM
- GI50 [2]: 45.7 µM
- TGI [2]: > 100 µM
- GI50 [3]: 71 µM
- TGI [3]: > 100 µM
- GI50 [4]: > 100 µM
- TGI [4]: > 100 µM
- GI50 [5]: 15.8 µM
- TGI [5]: 55.2 µM
- GI50 [6]: 54.2 µM
- TGI [6]: > 100 µM
- GI50 [7]: 17.2 µM
- TGI [7]: 47.1 µM
- GI50 [8]: 22.1 µM
- TGI [8]: > 100 µM
- GI50 [9]: 48.1 µM
- TGI [9]: > 100 µM
- GI50 [10]: 35.3 µM
- TGI [10]: > 100 µM

Compound: Cc1ccc2cnc(N)c(C#Cc3cc(C(=O)Nc4ccc(CN5CCN(C)CC5)c(C(F)(F)F)c4)cnc3C)c2c1
- GI50 [1]: 0.803 µM
- TGI [1]: 1.87 µM
- GI50 [2]: 0.296 µM
- TGI [2]: 1.16 µM
- GI50 [3]: 0.609 µM
- TGI [3]: 1.36 µM
- GI50 [4]: 0.891 µM
- TGI [4]: 1.89 µM
- GI50 [5]: 0.128 µM
- TGI [5]: 0.712 µM
- GI50 [6]: 1.61 µM
- TGI [6]: 4.19 µM
- GI50 [7]: 1.08 µM
- TGI [7]: 2.49 µM
- GI50 [8]: 0.449 µM
- TGI [8]: 1.06 µM
- GI50 [9]: 0.734 µM
- TGI [9]: 1.56 µM
- GI50 [10]: 0.146 µM
- TGI [10]: 0.631 µM

Compound: Cn1ncc(-c2ccc3c(=O)[nH]nc(CN)c3c2)c1-c1c(F)c(Cl)cc(OC2CC2)c1C#N
- GI50 [1]: 14.9 µM and 13.7 µM
- TGI [1]: 29.5 µM and 27.5 µM
- GI50 [2]: 11.8 µM and 10.9 µM
- TGI [2]: 26.9 µM and 25.1 µM
- GI50 [3]: 14.3 µM and 13.7 µM
- TGI [3]: 27.8 µM and 27.2 µM
- GI50 [4]: 15.3 µM and 14.6 µM
- TGI [4]: 31.7 µM and 29.5 µM
- GI50 [5]: 14.2 µM and 11.6 µM
- TGI [5]: 30.1 µM and 24.6 µM
- GI50 [6]: 20.4 µM and 17.4 µM
- TGI [6]: 40.5 µM and 33.3 µM
- GI50 [7]: 12 µM and 14.3 µM
- TGI [7]: 24.4 µM and 27.5 µM
- GI50 [8]: 15.8 µM and 15.3 µM
- TGI [8]: 30.5 µM and 28.9 µM
- GI50 [9]: 19.9 µM and 17.1 µM
- TGI [9]: 66.8 µM and 48.2 µM
- GI50 [10]: 14.2 µM and 12.2 µM
- TGI [10]: 28.8 µM and 25.5 µM

Compound: N=C1C(O)C2(I)c3ccccc3N3C(=N)C(O)C4c5ccccc5N1C4C32 (configuration not stated)
- TGI [1]: 43.9 µM
- TGI [2]: > 100 µM
- TGI [3]: > 100 µM
- TGI [4]: > 100 µM
- TGI [5]: > 100 µM
- TGI [6]: > 100 µM
- TGI [7]: > 100 µM
- TGI [8]: > 100 µM
- TGI [9]: > 100 µM
- TGI [10]: > 100 µM

Compound: Nc1ncn([C@@H]2S[C@H](CO)[C@@H](O)[C@@H]2F)c(=O)n1
- GI50 [1]: 13.9 µM
- TGI [1]: > 100 µM
- GI50 [2]: 3.57 µM
- TGI [2]: > 100 µM
- GI50 [3]: > 100 µM
- TGI [3]: > 100 µM
- GI50 [4]: 0.662 µM
- TGI [4]: > 100 µM
- GI50 [5]: 3.43 µM
- TGI [5]: > 100 µM
- GI50 [6]: 2.94 µM
- TGI [6]: > 100 µM
- GI50 [7]: 0.827 µM
- TGI [7]: > 100 µM
- GI50 [8]: 0.297 µM
- TGI [9]: > 100 µM
- GI50 [10]: 5.13 µM
- TGI [10]: > 100 µM

Compound: CC1CC(C)CC(C)C(O)/C(C#N)=C/C=C/CC(C2CCCC2C(=O)O)OC(=O)CC(O)C(C)C1 (configuration not stated)
- TGI [1]: 0.0547 µM and 0.0449 µM
- GI50 [2]: 0.0565 µM
- TGI [2]: 0.27 µM and 0.412 µM
- GI50 [3]: 0.0262 µM
- TGI [3]: 0.0847 µM and 0.0392 µM
- GI50 [4]: 0.0232 µM
- TGI [4]: 0.109 µM and 0.0359 µM
- GI50 [5]: 0.0231 µM
- TGI [5]: 0.128 µM and 0.0412 µM
- GI50 [6]: 0.0369 µM
- TGI [6]: 0.217 µM and 0.0917 µM
- GI50 [7]: 0.0282 µM and 0.0232 µM
- TGI [7]: 0.122 µM and 0.0932 µM
- GI50 [8]: 0.0326 µM
- TGI [8]: 0.148 µM and 0.181 µM
- GI50 [9]: 0.0434 µM
- TGI [9]: 0.205 µM and 0.208 µM
- GI50 [10]: 0.115 µM
- TGI [10]: 0.312 µM and 0.106 µM

Compound: COc1cc(C)ccc1C(=O)c1ccc(C)cc1OC
- GI50 [1]: 3.06 µM
- TGI [1]: > 100 µM
- GI50 [2]: 2.55 µM
- TGI [2]: 9.34 µM
- GI50 [3]: 6.96 µM
- TGI [3]: > 100 µM
- GI50 [4]: 7.31 µM
- TGI [4]: > 100 µM
- GI50 [5]: 6.58 µM
- TGI [5]: > 100 µM
- GI50 [6]: 2.66 µM
- TGI [6]: 14.1 µM
- GI50 [7]: 2.99 µM
- TGI [7]: 24.6 µM
- GI50 [8]: 8.21 µM
- TGI [8]: > 100 µM
- GI50 [9]: 4.08 µM
- TGI [9]: > 100 µM
- GI50 [10]: 4.67 µM
- TGI [10]: > 100 µM

Compound: CC(C)=CCN1c2ccccc2NC(=O)CC1C (configuration not stated)
- TGI [1]: > 100 µM
- TGI [2]: > 100 µM
- TGI [3]: > 100 µM
- TGI [4]: > 100 µM
- TGI [5]: > 100 µM
- TGI [6]: > 100 µM
- TGI [7]: 85 µM
- TGI [8]: > 100 µM
- TGI [9]: > 100 µM
- TGI [10]: > 100 µM

Compound: CCOc1ccccc1CCN=C1NC(=O)/C(=C/c2ccc3ncccc3c2)S1
- GI50 [1]: 1.2 µM
- TGI [1]: > 25 µM
- GI50 [2]: 0.735 µM
- TGI [2]: 3.07 µM
- GI50 [3]: 5.22 µM
- TGI [3]: > 24.1 µM
- GI50 [4]: 1.46 µM
- TGI [4]: > 25 µM
- GI50 [5]: 1.47 µM
- TGI [5]: 15 µM
- GI50 [6]: 1.81 µM
- TGI [6]: 8.46 µM
- GI50 [7]: 2.05 µM
- TGI [7]: 15.2 µM
- GI50 [8]: 1.45 µM
- TGI [8]: > 25 µM
- GI50 [9]: 0.562 µM
- TGI [9]: 3.99 µM
- GI50 [10]: 3 µM
- TGI [10]: 10.6 µM

Compound: CC(=O)c1c(O)c(C)c(O)c(Cc2c(O)c3c(c(C(=O)/C=C/c4ccccc4)c2O)OC(C)(C)C=C3)c1O
- TGI [1]: 14.5 µM
- TGI [2]: 3.95 µM
- TGI [3]: 14.9 µM
- TGI [4]: 19.4 µM
- TGI [5]: 16.3 µM
- TGI [6]: 15.1 µM
- TGI [7]: 5.75 µM
- TGI [8]: 34.3 µM
- TGI [9]: 5.18 µM
- TGI [10]: 12.6 µM

Compound: COc1cc(/C=C/C(=O)/C=C/c2cc(OC)c3c(c2)OCO3)cc2c1OCO2
- GI50 [1]: 2.19 µM
- TGI [1]: 6.45 µM
- GI50 [2]: 4.86 µM
- TGI [2]: > 100 µM
- GI50 [3]: 39 µM
- TGI [3]: > 100 µM
- GI50 [4]: 10.3 µM
- TGI [4]: > 100 µM
- GI50 [5]: 4.78 µM
- TGI [5]: > 100 µM
- GI50 [6]: 3.46 µM
- TGI [6]: 48.2 µM
- GI50 [7]: 5.59 µM
- TGI [7]: > 100 µM
- GI50 [8]: 7.25 µM
- TGI [8]: > 100 µM
- GI50 [9]: 72.2 µM
- TGI [9]: > 100 µM
- GI50 [10]: > 100 µM
- TGI [10]: > 100 µM
